The source of these data is ChEMBL document CHEMBL1145355, “From selective substrate analogue factor Xa inhibitors to dual inhibitors of thrombin and factor Xa. Part 3” (Bioorg Med Chem Lett, 2007).

One series addresses Prothrombin (Homo sapiens, UniProt P00734). The series is described as follows: Inhibition of thrombin.
In series [1] the target is Urokinase-type plasminogen activator (Homo sapiens, UniProt P00749). As to the kind of experiment: Inhibition of uPA.
A short description of series [2]: Inhibition of Plasmin. Set-up: species or system Homo sapiens.
In a further series the target is Trypsin (Homo sapiens, UniProt P07477+P07478+P35030). As to the kind of experiment: Inhibition of trypsin. The series is classed as protein assay.
The nature of series [3]: Anticoagulant activity in human plasma by aPTT assay. The format is functional.
Series [4] deals with Plasma. The series is described as follows: Anticoagulant activity in human plasma by TT assay. The format is functional.
Series [5] can be described thus: Half life in iv dosed rat. The format is ADME, organism-based. Conditions: in vivo.
Series [6] in a line: Bioavailability in rat at 5 mg/kg po. The format is ADME, organism-based. Conditions: in vivo.
The subject of the next series is Rattus norvegicus. The series is described as follows: Clearance in bile of rat at 5 mg/kg po. The arrangement: dose 5 mg/kg, route oral. The settings on record: in vivo. The format is ADME, organism-based.
The nature of series [7]: % of dose in urine of rat at 5 mg/kg po. The settings on record: read-out: Compound in urine. Set-up: dose 5 mg/kg, route oral. The series is classed as ADME, organism-based.
Series [8] relates to Plasma. As to the kind of experiment: Anticoagulant activity in human plasma by PT assay. The format is functional.
Series [9] is described as follows: Permeability across Caco-2 cell membrane. The format is ADME, cell-based. The settings on record: human.
In another series the target is Coagulation factor X (Homo sapiens, UniProt P00742).
Chain of Coagulation factor X (P00742 41-179 limits assumed): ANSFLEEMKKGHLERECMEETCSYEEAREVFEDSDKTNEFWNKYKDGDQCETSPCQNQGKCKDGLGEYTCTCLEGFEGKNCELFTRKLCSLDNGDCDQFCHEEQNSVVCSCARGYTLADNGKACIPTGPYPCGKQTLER
Chain of Coagulation factor X (P00742 235-488 limits assumed): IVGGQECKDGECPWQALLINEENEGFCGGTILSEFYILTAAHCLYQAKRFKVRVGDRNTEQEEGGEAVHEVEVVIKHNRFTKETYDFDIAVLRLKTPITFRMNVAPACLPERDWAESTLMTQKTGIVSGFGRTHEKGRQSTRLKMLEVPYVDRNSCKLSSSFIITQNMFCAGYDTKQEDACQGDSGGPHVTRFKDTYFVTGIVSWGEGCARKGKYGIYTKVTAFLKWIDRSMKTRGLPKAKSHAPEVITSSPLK

In the case of `NCc1ccc(Cl)cc1CNC(=O)CNC(=O)[C@@H](CCc1cccc[n+]1[O-])NS(=O)(=O)Cc1ccccc1`, the Ki is 170 nM on Prothrombin, 150000 nM in [1], 930000 nM in series [2] and 6500 nM at Trypsin. The IC200 stood at 0.16 µM in series [3] and 0.5 µM with Plasma [4]. The half-life in series [5] was less than 20 min. This compound came in with a bioavailability in series [6] of less than 5%. In the series with Rattus norvegicus, this compound displayed a CL_biliary of 75%. The dose excreted in series [7] worked out at 15%.

As for `CCOC(=O)CN[C@H](CCc1ccc(O)cc1)C(=O)N1CCC[C@H]1C(=O)NCc1cc(Cl)ccc1CN`, the Ki on Prothrombin was 3.6 nM; in [1] it was greater than 5000 nM; in series [2] it was greater than 5000 nM; on Trypsin, greater than 500 nM; at Coagulation factor X, 17 nM. For the same compound, the IC200 in [3] worked out at 0.58 µM; in the series on Plasma [8], 0.85 µM; in the series on Plasma [4] it was 0.23 µM. Besides, the Papp in series [9] is 8.9 ×10⁻⁶ cm/s.

Consider `NCc1ccc(Cl)cc1CNC(=O)CNC(=O)C(CCc1cccc[n+]1[O-])NC(=O)C(=O)O` (stereo unspecified), for which the inhibitory constant (Ki) on Prothrombin is 18000 nM; in series [1] it was greater than 5000 nM; in [2] it was greater than 5000 nM; on Trypsin, greater than 500 nM; on Coagulation factor X, 4.9 nM. Further, the IC200 in [3] is 1.85 µM; in the series on Plasma [8], 0.13 µM; in the series on Plasma [4], 15 µM. This compound yielded a half-life in [5] of 30 min.

Take `CCOC(=O)CN[C@H](CCc1ccccn1)C(=O)N1CCC[C@H]1C(=O)NCc1cc(Cl)ccc1CN`: the Ki at Prothrombin is 3.8 nM; in series [1], greater than 5000 nM; in series [2], greater than 5000 nM; at Trypsin, greater than 500 nM. Moreover, the figures for the IC200 (in [3]; in the series with Plasma [8]; in the series on Plasma [4]) were 0.23 µM, 0.6 µM and 0.09 µM, respectively. The same compound showed a Papp in series [9] of 2.4 ×10⁻⁶ cm/s.

The Ki is the equilibrium dissociation constant of an inhibitor or competing ligand from its target. Lower therefore signals higher affinity. As usually defined, the half-life is how long it takes for the measured level to halve. Low values mean fast loss, high ones slow loss. The term bioavailability denotes dose-corrected exposure relative to a reference, in per cent. Low values mean little systemic uptake, high ones much systemic uptake. In general, Papp refers to a coefficient for how fast a substance crosses the barrier.
